Where two headings read alike, the source gives them in different places.
How the values were obtained:
[1] = PK of ixazomib in plasma and urine (LC/MS/MS) after a single [14C]-ixazomib oral solution dose, phase I human ADME study Part A; type: in vivo; settings: N = 5
Experimental: The primary objectives of the study were: (1) to assess the mass balance (i.e., cumulative excretion of TRA in urine and feces) of ixazomib following a single oral solution dose of 4.1 mg [^14C]-ixazomib containing approximately 500 nCi of TRA (specific activity of 125 nCi/mg); and (2) to characterize the PK of ixazomib in plasma and urine, and of TRA in plasma and whole blood, after a single oral solution dose of 4.1 mg [^14C]-ixazomib. The secondary objective was to assess the safety and tolerability of multiple-dose ixazomib administration in patients with advanced solid tumors or lymphoma.
This study was conducted in two parts: a 35-day PK cycle (Part A), followed by repeated 28-day treatment cycles (Part B; Fig. 1). In Part A of the study, patients who met the inclusion and exclusion criteria were admitted to the study clinic on the morning of day 1 for the initial confinement period (days 1–8). Patients received a single 10 mL oral solution dose of 4.1 mg [^14C]-ixazomib containing approximately 500 nCi of TRA, followed by 3 × 10 mL water rinses of the dosing cup. Patients then drank approximately 200 mL of water. Patients returned to the clinic on days 14, 21, 28, and 35 for a 24 h overnight clinic visit. Non-radiolabeled doses of ixazomib (4 mg capsule) were administered on days 14 and 21. After completing their day 35 assessments in Part A, patients were permitted to continue into Part B of the study, where they received non-radiolabeled ixazomib (4 mg capsules) once weekly on days 1, 8, and 15 of each 28-day treatment cycle until disease progression or unacceptable toxicity. All doses of ixazomib were administered on an empty stomach, at least 1 h before or at least 2 h after food.
Plasma and whole blood samples were collected at the following time points after ixazomib administration on day 1 of Part A: 0 (predose), 0.5, 1, 2, 3, 4, 8, 24, 48, 72, 96, 120, 144, 168, 312 (day 14), 480 (day 21), 648 (day 28), and 816 (day 35) h post dose. Complete urinary and fecal output was collected continuously during the initial confinement period of Part A (days 1–8). Patients were discharged from the clinic on day 8 and returned on days 14, 21, 28, and 35 for a 24 h overnight visit. Urinary and fecal output was collected during each of these 24 h overnight clinic visits. Patients were also instructed to collect all feces at home for the 24 h period before each overnight clinic visit (days 13, 20, 27, and 34).
Plasma and urine concentrations of ixazomib were measured using a validated liquid chromatography/tandem mass spectrometry (LC/MS/MS) assay with a quantitation range of 0.5–500 ng/mL [16].
The plasma PK of ixazomib was characterized over the first 14 days post dose, while the urine PK and excretion of ixazomib was assessed over the first 7 days post dose. TRA in plasma, whole blood, urine, and feces was assessed over the 35-day post-dose period in Part A. Mass balance of radiolabeled ixazomib was characterized based on the sum of cumulative amounts excreted in feces and urine during the continuous collection interval up to 7 days post dose (day 8, 168 h), and the interpolated amounts excreted in feces and urine between the weekly intermittent collections up to 35 days post dose. For the intervals of time during which urine and feces were not collected, the interval recovery of TRA was estimated as the area under the excretion rate-time curve from the end of the preceding collection interval to the start of the subsequent collection interval. PK parameters were calculated by non-compartmental analysis methods (Phoenix WinNonlin version 6.2, Certara, Princeton, NJ, USA).

relapsed/refractory MM = test system: relapsed/refractory MM; set-up: method as in PMID 27119237; settings: cited from earlier work
[2] = test system: cytochrome P450 (CYP) and non-CYP proteins; set-up: method as in earlier work; settings: clinically relevant ixazomib concentrations; cited from earlier work
CYP2B6 = test system: CYP2B6; set-up: method as in earlier work; settings: 10 μM, exceeding clinical concentrations; cited from earlier work
CYP2C8 = test system: CYP2C8; set-up: method as in earlier work; settings: 10 μM, exceeding clinical concentrations; cited from earlier work
CYP2D6 = test system: CYP2D6; set-up: method as in earlier work; settings: 10 μM, exceeding clinical concentrations; cited from earlier work
[3] = set-up: method as in PMID 28550039; settings: 4 mg capsules, relapsed or refractory light-chain amyloidosis, cited from earlier work

## CC(C)C[C@H](NC(=O)CNC(=O)c1cc(Cl)ccc1Cl)B(O)O [ixazomib]
[1]; human, plasma, po, 4.1 mg, plasma, single 4.1 mg oral solution dose of [14C]-ixazomib, read-out: Geometric mean AUC0–168, ng*h/mL (%CV), ixazomib
  AUC(0-t): 847 ng·h/mL
[1]; human, plasma, po, 4.1 mg, plasma, single 4.1 mg oral solution dose of [14C]-ixazomib, read-out: Geometric mean AUC0–312, ng*h/mL (%CV), ixazomib
  AUC(0-t): 1180 ng·h/mL
[1]; human, urine, po, 4.1 mg, up to 168 h post dose, single 4.1 mg oral solution dose, read-out: Mean urinary recovery, % (SD): administered dose recovered in urine as unchanged drug
  dose excreted: < 3.5%
[1]; human, plasma, single 4.1 mg oral solution dose of [14C]-ixazomib, read-out: Geometric mean Cmax, ng/mL (%CV), ixazomib
  Cmax: 89.1 ng/mL
[1]; human, urine, single 4.1 mg oral solution dose of [14C]-ixazomib, read-out: Geometric mean CLR (renal clearance), L/h (%CV) (converted)
  CL renal: 0.119 L/h
[1]; up to 168 h post dose, single 4.1 mg oral solution dose
  Mean urinary recovery, % (SD): administered dose recovered in urine as unchanged drug: 3.23 (2.13) %
relapsed/refractory MM; ixazomib (4 mg starting dose) added to lenalidomide and dexamethasone, RRMM patients, versus 14.7 months with placebo
  Median progression-free survival: 20.6 months
relapsed/refractory MM; ixazomib plus lenalidomide and dexamethasone versus placebo plus lenalidomide and dexamethasone, p = 0.012
  Progression-free survival hazard ratio: 0.74
[2]
  Metabolic pathways in vitro: metabolized by multiple cytochrome P450 (CYP) and non-CYP proteins with CYP450 enzymes playing only a minor role
CYP2B6
  Estimated relative contribution of 2B6 to metabolism: 16%
CYP2C8
  Estimated relative contribution of 2C8 to metabolism: 6%
CYP2D6
  Estimated relative contribution of 2D6 to metabolism: 5%
[3]; day 1
  Whole blood to plasma AUC0–168 ratio for ixazomib alone: 12.7
[3]; day 15
  Whole blood to plasma AUC0–168 ratio for ixazomib alone: 9.86

Source: publication PMC5948259, “A phase I study to assess the mass balance, excretion, and pharmacokinetics of [^14C]-ixazomib, an oral proteasome inhibitor, in patients with advanced solid tumors” (Investigational New Drugs, 2017)
